Source: patent US20240246941A1, “SUBSTITUTED 4-(3-AMINOPROP-1-YL)AMINOQUINOLINE ANALOGS AS MODULATORS OF MELANOMA-ASSOCIATED ANTIGEN 11 UBIQUITIN LIGASE” (ST. JUDE CHILDREN'S RESEARCH HOSPITAL, INC., priority 2020, published 2024)

target: interaction between GST-MAGEA11 MHD and FAM-PCF11_4 peptide (MAGE-A11:PCF11) (Homo sapiens (Human), UniProt P43364); assay: TR-FRET dose response competition assay for disruption of MAGE-A11:PCF11 binding; details: Dose response TR-FRET screening of nine scaffold groups against MAGE-A11:PCF11; read-out: consensus IC50
Sequence (P43364 218-429): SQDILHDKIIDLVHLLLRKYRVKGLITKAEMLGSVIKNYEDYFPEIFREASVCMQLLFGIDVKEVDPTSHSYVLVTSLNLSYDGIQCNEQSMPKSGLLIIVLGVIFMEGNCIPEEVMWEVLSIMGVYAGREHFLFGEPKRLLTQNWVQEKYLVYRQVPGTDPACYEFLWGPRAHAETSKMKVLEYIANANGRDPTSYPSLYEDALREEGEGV
Outline: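 Competition TR-FRET at room temperature in 50 mM Tris pH 7.5, 20 mM MgCl2, 0.1 mg/ml BSA, 1 mM DTT: final 5 nM GST-MAGEA11 MHD, 5 nM Tb-anti-GST, 200 nM FAM-PCF11_4, 90 min. Ratio 520/490 nm converted to % inhibition; IC50 from sigmoidal fit.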

| SMILES | IC50 [µM] |
| --- | --- |
| Cc1ccc(S(=O)(=O)c2nc(-c3ccc(Cl)cc3)oc2N2CCOCC2)cc1 [SJ000230693-1] | 69.9 |
| CCOc1ccc(-c2nc3c(c(=O)[nH]c(=O)n3Cc3ccccc3)n2C)cc1 [SJ000389476-1] | 69.9 |
| CCCn1c(=O)[nH]c(=O)c2c1nc(-c1cccc(F)c1)n2CCOC [SJ000378928-1] | 69.9 |
| NC1=C(Nc2cccc3ccccc23)C(=O)c2ccccc2C1=O [SJ000300361-1] | 69.9 |
| O=C1C(Cl)=C(NC(=O)C(F)(F)F)C(=O)c2ccccc21 [SJ000024928-1] | 9.87 |
| COc1ccc(F)cc1CNCCCNc1ccnc2cc(-c3cc(C(F)(F)F)cc(C(F)(F)F)c3)ccc12 [SJ000311273-1] | 7.69 |
| O=C(Cn1cnc2cc(-c3ccccc3)sc2c1=O)NCc1ccccc1OC(F)(F)F [SJ000456118-1] | 69.9 |
| O=S(=O)(c1ccc(Cl)cc1)c1nc(-c2ccccc2Cl)oc1N1CCOCC1 [SJ000141574-1] | 69.9 |
| O=C1C(Cl)=C(Nc2ccc(Cl)cc2)C(=O)c2ccccc21 [SJ000297073-1] | 69.9 |
| COc1ccc(C(F)(F)F)cc1CNCCCNc1ccnc2cc(C(F)(F)F)ccc12 [SJ000521064-1] | 69.1 |
| CCOc1ccc(Nc2nc(N)c3ccccc3n2)cc1 [SJ000045621-1] | 69.9 |
| FC(F)(F)Oc1ccc(CNCCCNc2ccnc3cc(C(F)(F)F)ccc23)cc1 [SJ000521050-1] | 69.9 |
| O=S(=O)(c1ccc(Cl)cc1)c1nc(-c2ccc(Cl)cc2)oc1N1CCOCC1 [SJ000230692-1] | 69.9 |
| COc1ccc(F)cc1CNCCCNc1ccnc2cc(Cc3ccc(C#N)cc3)ccc12 [SJ000311305-1] | 69.9 |
| CCCN1C(=O)c2ccccc2NC1c1cccc(O)c1O (stereo not drawn) [SJ000395233-1] | 69.9 |
| CC(C)c1ccc(-c2nc3c(=O)n(C)c(=O)n(C)c3[nH]2)cc1 [SJ000203904-1] | 69.9 |
| COc1cc2nc(N(C)CCCNC(=O)C3CCCO3)nc(N)c2cc1OC (stereo not drawn) [SJ000286094-9] | 36.2 |
| CCC(C)c1ccc(C2=C(c3ccc([N+](=O)[O-])cc3)C(=O)OC2)cc1 (stereo not drawn) [SJ000368165-1] | 69.9 |
| CCCCCn1c(-c2cccc(OC)c2)nc2c1c(=O)[nH]c(=O)n2CCCC [SJ000451928-1] | 69.9 |

| SMILES | IC50 [µM] |
| --- | --- |
| O=C(Cn1cnc2cc(-c3ccccc3)sc2c1=O)NCc1ccccc1Cl [SJ000455850-1] | 69.9 |
| COc1ccc(C2Nc3ccccc3C(=O)N2Cc2ccccc2)cc1Cn1nc(C)c(Cl)c1C (stereo not drawn) [SJ000288637-1] | 69.9 |
| COc1ccc(CN2C(=O)c3ccccc3NC2c2ccc(C)cc2)cc1 (stereo not drawn) [SJ000510741-1] | 69.9 |
| Cc1ccc(S(=O)(=O)c2nc(-c3ccccc3C)oc2N2CC(C)OC(C)C2)cc1 (stereo not drawn) [SJ000329041-1] | 11.8 |
| COc1ccc(C2Nc3ccccc3C(=O)N2Cc2ccccc2)cc1COc1ccccc1F (stereo not drawn) [SJ000295328-2] | 69.9 |
| Clc1ccc(Oc2ccc3c(NCCCNCc4cccc5c4OCO5)ccnc3c2)cc1 [SJ000311228-1] | 17.7 |
| COc1ccc(F)cc1CNCCCNc1ccnc2cc(-c3ccccc3)ccc12 [SJ000311285-1] | 28.2 |
| COc1ccccc1CNCCCNc1ccnc2cc(Cl)ccc12 [SJ000311185-1] | 69.9 |
| CCCn1c(=O)[nH]c(=O)c2c1nc(-c1cccc(C)c1)n2CCOC [SJ000423281-1] | 69.9 |
| CCCn1c(-c2ccc(C#N)cc2)nc2c1c(=O)[nH]c(=O)n2Cc1ccccc1 [SJ000383781-1] | 69.9 |
| CCCCn1c(=O)[nH]c(=O)c2c1nc(-c1cccc(F)c1)n2C [SJ000415940-1] | 69.9 |
| CC(C)CCc1ccc2c(NCCCNCc3cccc4c3OCO4)ccnc2c1 [SJ000311248-1] | 27.7 |
| CCC(CC)c1ccc2c(NCCCNCc3cccc4c3OCO4)ccnc2c1 [SJ000311268-1] | 28.9 |
| COP(=O)(OC)c1nc(-c2ccc(Br)cc2)oc1N1CCOCC1 [SJ000090176-1] | 69.9 |
| Cc1cc(C)cc(NC2=C(N)C(=O)c3ccccc3C2=O)c1 [SJ000562641-1] | 55 |
| O=C1c2ccccc2NC(c2ccc(Cl)c(Cl)c2)N1Cc1ccccc1 (stereo not drawn) [SJ000551208-1] | 69.9 |
| CCOC(=O)COc1ccc(-c2nc3c(=O)n(C)c(=O)n(C)c3[nH]2)cc1OC [SJ000140137-1] | 69.9 |
| O=C1c2ccccc2NC(c2ccc([N+](=O)[O-])cc2)N1Cc1ccccc1 (stereo not drawn) [SJ000051049-1] | 69.9 |
| COP(=O)(OC)c1nc(-c2ccccc2)oc1N1CCOCC1 [SJ000124835-1] | 69.9 |

| SMILES | IC50 [µM] |
| --- | --- |
| CCn1c2ccccc2c2cc(CNCCc3ccc(Cl)cc3)ccc21 [SJ000112458-1] | 69.9 |
| CCCc1ccc(C2=C(c3ccc([N+](=O)[O-])cc3)C(=O)OC2)cc1 [SJ000368117-1] | 69.9 |
| COc1cccc(CNCCCNc2ccnc3cc(Cc4ccccc4)ccc23)c1O [SJ000311307-1] | 69.9 |
| CCCn1c(-c2ccc(F)cc2)nc2c1c(=O)[nH]c(=O)n2Cc1ccccc1 [SJ000456724-1] | 69.9 |
| CCCn1c(=O)[nH]c(=O)c2c1nc(-c1ccc(NC(C)=O)cc1)n2CCN1CCOCC1 [SJ000406218-1] | 69.9 |
| Fc1ccc(-c2ccc3c(NCCCNCc4cccc5c4OCO5)ccnc3c2)cc1 [SJ000311240-1] | 25 |
| COc1cccc(CNCCCNc2ccnc3cc(Cc4ccc(F)cc4Cl)ccc23)c1O [SJ000311323-1] | 17.6 |
| CCCCn1c(=O)[nH]c(=O)c2c1nc(-c1ccc(OCC)c(OC)c1)n2CCOC [SJ000427387-1] | 69.9 |
| CCCN1C(=O)c2ccccc2NC1c1cc(Cl)c(O)c(OC)c1 (stereo not drawn) [SJ000414199-1] | 69.9 |
| CCn1c2ccccc2c2cc(CN3CCN(CCO)CC3)ccc21 [SJ000145592-1] | 69.9 |
| COc1ccc(F)cc1CNCCCNc1ccnc2cc(-c3ccc(F)cc3)ccc12 [SJ000311241-1] | 38.9 |
| C=C(C)Cn1cnc2cc(-c3ccc(Cl)cc3)sc2c1=O [SJ000456507-1] | 69.9 |
| CCc1ccc(CNCCCNc2ccnc3cc(C(F)(F)F)ccc23)cc1 [SJ000521067-1] | 40.9 |
| CCCCn1c(=O)[nH]c(=O)c2c1nc(-c1ccc(C(F)(F)F)cc1)n2C [SJ000378916-1] | 69.9 |
| O=c1c2sc(-c3ccccc3)cc2nc(SCCO)n1CCN1CCOCC1 [SJ000452798-1] | 69.9 |
| CCCn1c(=O)[nH]c(=O)c2c1nc(-c1cccc(OC)c1)n2CCOC [SJ000427207-1] | 69.9 |
| CCOc1ccc(-c2nc(C#N)c(N3CC(C)OC(C)C3)o2)cc1 (stereo not drawn) [SJ000478356-1] | 69.9 |
| CCCN1C(=O)c2ccccc2NC1c1ccc(Cl)c(Cl)c1 (stereo not drawn) [SJ000296071-1] | 69.9 |

same assay, conditions: Table 5, dose response TR-FRET screening of 59 quinoline compounds against MAGE-A11:PCF11; read-out: TR-FRET IC50

| SMILES | IC50 [µM] |
| --- | --- |
| FC(F)(F)c1ccc2c(NCCCNCc3cc4ccccc4s3)ccnc2c1 [SJ000521060-1] | > 70 |
| Oc1c(F)cc(F)cc1CN(CCCCNc1ccnc2cc(Cl)ccc12)Cc1ccccc1 [SJ000357506-2] | > 70 |
| CCCN(CCCNc1ccnc2cc(C(F)(F)F)ccc12)CC(CC)CC [SJ000361269-1] | > 70 |
| CCCN(CCCNc1ccnc2cc(Cl)ccc12)Cc1ccc(-c2ccccc2)cc1 [SJ000523039-1] | > 70 |
| CCCN(CCCNc1ccnc2cc(C(F)(F)F)ccc12)CC1CC1 [SJ000361266-1] | > 70 |
| COc1ccc(Oc2ccc3c(NCCCNCc4ccco4)ccnc3c2)cc1 [SJ000311218-1] | > 70 |
| CCCN(CCCNc1ccnc2cc(C(F)(F)F)ccc12)CC1CCCCC1 [SJ000361268-1] | > 70 |
| FC(F)(F)Oc1cccc(CN(CCCCNc2ccnc3cc(Cl)ccc23)Cc2ccccc2)c1 [SJ000520457-1] | > 70 |
| c1coc(CNCCCNc2ccnc3cc(-c4ccc5c(c4)OCO5)ccc23)c1 [SJ000311290-1] | > 70 |

same assay, conditions: Table 6, 4-aminoquinoline compounds; read-out: TR-FRET, IC50

| SMILES | IC50 [µM] |
| --- | --- |
| FC(F)(F)c1ccc(-c2ccc3c(NCCCNCc4cccc5c4OCO5)ccnc3c2)cc1 [SJ000311280-01] | 4.07 |

same assay, conditions: Table 8, representative compounds; read-out: TR-FRET IC50

| SMILES | IC50 [µM] |
| --- | --- |
| COc1ccc(F)cc1CNCCCNc1ccnc2cc(Cc3ccc(F)cc3)ccc12 [SJ000311245] | 35.1 |
| COc1cc(NC(C)CCCN)c2ncccc2c1 (stereo not drawn) [SJ000285544] | 19 |
| COc1ccc(F)cc1CNCCCNc1ccnc2cc(Oc3ccc(F)cc3)ccc12 [SJ000311225] | 69.9 |
| COc1cccc(Oc2ccc3c(NCCCNCc4cc(F)ccc4OC)ccnc3c2)c1 [SJ000311217] | 36.8 |
| COc1ccc(F)cc1CNCCCNc1ccnc2cc(Cc3ccccc3)ccc12 [SJ000311309] | 18.3 |
| c1ccc(Oc2ccc3c(NCCCNCc4cccc5c4OCO5)ccnc3c2)cc1 [SJ000311208] | 30.1 |
| N#Cc1cccc(CNCCCNc2ccnc3cc(Cl)ccc23)c1 [SJ000523063] | 69.9 |
| CC(C)(C)c1ccc(O)c(CNCCCNc2ccnc3cc(Cl)ccc23)c1 [SJ000311193] | 30.4 |
| COc1cccc(CNCCCNc2ccnc3cc(C4CCCCC4)ccc23)c1O [SJ000311263] | 32.4 |
| CCc1c2c(nc3ccc(OC(=O)N4CCC(N5CCCCC5)CC4)cc13)-c1cc3c(c(=O)n1C2)COC(=O)[C@]3(O)CC [SJ000312345] | > 58.7 |
| COc1ccc(OC(F)(F)F)cc1CNCCCNc1ccnc2cc(C(F)(F)F)ccc12 [SJ000521063] | 69.9 |
| COc1ccc(F)c(CNCCCNc2ccnc3cc(Cl)ccc23)c1 [SJ000521030] | 69.9 |
| FC(F)(F)c1ccc(-c2ccc3c(NCCCNCc4cccc5c4OCO5)ccnc3c2)cc1 [SJ000311280-01] | 15.7 |
| Fc1ccc(Oc2ccc3c(NCCCNCc4cccc5c4OCO5)ccnc3c2)cc1 [SJ000311224] | 59.6 |
| Fc1ccc(CNCCCNc2ccnc3cc(Cl)ccc23)cc1 [SJ000523062] | 69.9 |
| COc1ccc(F)cc1CNCCCNc1ccnc2cc(Oc3ccccc3OC)ccc12 [SJ000311213] | 69.9 |
| COc1ccc(F)cc1CNCCCNc1ccnc2cc(Cc3c(Cl)cccc3Cl)ccc12 [SJ000311317] | 12.2 |

same assay, conditions: read-out: IC50 by TR-FRET for disrupting MAGE-A11:PCF11 interaction

| SMILES | IC50 [µM] |
| --- | --- |
| FC(F)(F)c1ccc(-c2ccc3c(NCCCNCc4cccc5c4OCO5)ccnc3c2)cc1 [SJ000311280-01] | 4.07 |
